From ChEMBL document CHEMBL3603825, “Synthesis and evaluation of arylpiperazine-reverse amides as biased dopamine D3 receptor ligands” (Bioorg Med Chem, 2015)
Where “and” joins values, the source holds several entries; their conditions need not be identical. Identical values can stand only once.

Tests used:
D(2) dopamine receptor [1] = target: T1, D(2) dopamine receptor (Homo sapiens, UniProt P14416); test: Displacement of [3H]-sulpiride from human dopamine D2 receptor expressed in HEK293 cells after 150 mins by liquid scintillation counting; format: cell-based
D(3) dopamine receptor [2] = target: T2, D(3) dopamine receptor (Homo sapiens, UniProt P35462); test: Displacement of [3H]-sulpiride from human dopamine D3 receptor expressed in HEK293 cells after 150 mins by liquid scintillation counting; format: cell-based
Homo sapiens = organism: Homo sapiens; test: Selectivity ratio of Ki for human dopamine D2 receptor to Ki for human dopamine D3 receptor
D(2) dopamine receptor [3] = target: T1, D(2) dopamine receptor; test: Displacement of [3H]-sulpiride from human dopamine D2 receptor expressed in HEK293 cells at 100 nM after 150 mins by liquid scintillation counting; format: cell-based
D(3) dopamine receptor [4] = target: T2, D(3) dopamine receptor; test: Displacement of [3H]-sulpiride from human dopamine D3 receptor expressed in HEK293 cells at 100 nM after 150 mins by liquid scintillation counting; format: cell-based

T2 sequence (P35462 whole entry): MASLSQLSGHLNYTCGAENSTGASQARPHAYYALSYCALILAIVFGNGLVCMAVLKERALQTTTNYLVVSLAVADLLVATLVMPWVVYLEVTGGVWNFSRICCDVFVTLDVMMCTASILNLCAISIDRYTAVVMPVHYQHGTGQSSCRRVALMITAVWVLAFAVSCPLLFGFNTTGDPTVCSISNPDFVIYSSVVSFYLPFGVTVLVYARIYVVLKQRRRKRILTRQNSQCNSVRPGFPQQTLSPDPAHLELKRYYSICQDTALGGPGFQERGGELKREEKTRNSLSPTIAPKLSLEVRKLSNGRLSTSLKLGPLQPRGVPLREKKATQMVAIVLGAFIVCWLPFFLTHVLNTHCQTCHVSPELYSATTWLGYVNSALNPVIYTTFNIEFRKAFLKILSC
T1 sequence (P14416 whole entry): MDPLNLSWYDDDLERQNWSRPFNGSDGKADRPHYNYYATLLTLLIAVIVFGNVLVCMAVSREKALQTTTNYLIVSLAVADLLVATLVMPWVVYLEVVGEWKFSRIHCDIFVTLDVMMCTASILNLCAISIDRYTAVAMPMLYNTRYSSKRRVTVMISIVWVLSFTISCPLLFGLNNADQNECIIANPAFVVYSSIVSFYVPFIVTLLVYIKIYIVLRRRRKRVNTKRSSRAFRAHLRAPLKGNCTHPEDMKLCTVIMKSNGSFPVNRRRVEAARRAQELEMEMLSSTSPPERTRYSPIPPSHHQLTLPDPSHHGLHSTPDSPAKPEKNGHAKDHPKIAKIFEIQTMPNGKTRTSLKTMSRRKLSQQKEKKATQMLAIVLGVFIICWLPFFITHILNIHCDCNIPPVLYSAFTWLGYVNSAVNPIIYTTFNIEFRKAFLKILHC

Ki (D(2) dopamine receptor [1]) [nM] | Ki (D(3) dopamine receptor [2]) [nM] | Ratio Ki (Homo sapiens) | inhibition (D(2) dopamine receptor [3]) | inhibition (D(3) dopamine receptor [4]) | SMILES
197 | 9.4 | 21 | – | – | COc1ccc2nc(NC(=O)CCCCN3CCN(c4ccc(Cl)cc4)CC3)sc2c1
– | – | – | 34% and 14.3% | 27.7% and 34.9% | O=C(CCCCN1CCN(c2cccc(C(F)(F)F)c2)CC1)Nc1nc2ccccc2[nH]1
– | – | – | 29.9% | 35.5% | O=C(CCCCN1CCN(c2ccc(Cl)cc2)CC1)Nc1nc2ccccc2[nH]1
– | – | – | 3.1% and 2.6% | 33.4% and 28.7% | COc1ccc2nc(NC(=O)CCCCN3CCN(c4ccc(Cl)cc4F)CC3)sc2c1
– | – | – | 33.3% and 24.8% | 25.8% and 7.9% | O=C(CCCCN1CCC(O)(c2ccc(Cl)cc2)CC1)Nc1nc2ccccc2s1
– | – | – | 57.3% | 65.2% | O=C(CCCCN1CCN(c2ccc(Cl)cc2)CC1)Nc1nc2ccccc2s1
5590 | 87.6 | 63.8 | 14.5% and 15.2% | 46% and 48.3% | O=C(CCCCN1CCN(c2ccc(Cl)cc2Cl)CC1)Nc1nc2ccccc2s1
– | – | – | 7% and 11% | 30.3% and 26.2% | O=C(CCCCN1CCN(c2ccc(Cl)cc2)CC1)Nc1nc2ccc(Cl)cc2s1
– | – | – | 1% | 13.4% | Cc1ccc2nc(NC(=O)CCCCN3CCN(c4ccc(Cl)cc4)CC3)sc2c1
– | – | – | 40.9% | 56.1% | O=C(CCCCN1CCN(c2ccc(Cl)cc2)CC1)Nc1nc2ccccc2o1
– | – | – | -4.1% | 1.7% | O=C(CCCCN1CCN(c2ccc(Cl)cc2)CC1)Nc1nc2cc(Cl)ccc2o1
– | – | – | 30.1% and 6.9% | 34.8% and 12.8% | O=C(CCCCN1CCN(c2cccc(Cl)c2Cl)CC1)Nc1nc2ccccc2s1
– | – | – | 30.2% | 45.2% | O=C(CCCCN1CCN(c2ccc(Cl)cc2)CC1)Nc1nc2ccc([N+](=O)[O-])cc2s1
175 | 3.9 | 45 | – | 75.1% and 63.1% | O=C(CCCCN1CCN(c2ccccc2F)CC1)Nc1nc2ccccc2s1
– | – | – | 78.8% and 54.5% | 60.5% and 81.6% | COc1ccc2nc(NC(=O)CCCCN3CCN(c4ccccc4Cl)CC3)sc2c1
